We go through three compounds from PMC2410173, “Pharmacokinetics and efficacy of 2-methoxyoestradiol and 2-methoxyoestradiol-bis-sulphamate in vivo in rodents” (British Journal of Cancer, 2004).

The nature of data set [1]: Pharmacokinetics and metabolism in rat plasma after a single intravenous or oral dose (HPLC). The format is in vivo. The method, then: Female Wistar (155–165 g) rats were purchased from Charles River UK Ltd (Margate, Kent, UK) and housed in a dedicated animal facility. Rats received RM1 rodent maintenance diet (SDS, Kent, UK), water ad libitum, and were maintained in positive pressure isolators under a 12 h light–dark cycle. These experiments were carried out under conditions that complied with institutional requirements. Rats received 2-MeOE2 or 2-MeOE2bisMATE (10 mg kg^−1, oral or intravenous), with control animals receiving vehicle only (propylene glycol: THF, 9 : 1 v v^−1). There were two reasons for selecting 10 mg kg^−1 for both oral and intravenous dosing. […] Rats were subjected to terminal anaesthesia (Halothane) and blood removed by cardiac puncture at 5, 15 and 30 min and 1, 3, 8 and 24 h after intravenous administration, and 15 and 30 min and 1, 3, 8, 24 and 48h following oral administration of 2-MeOE2 or 2-MeOE2bisMATE. Plasma was prepared from whole blood by centrifugation (2800 g, 4°C, 15 min). Plasma (0.5 ml) was extracted with diethyl ether (4 ml) and frozen in a methanol : solid carbon dioxide mixture. 17α-Epitestosterone (28 μg ml^−1) was used as an internal standard after purification by HPLC. The organic phase was decanted to a fresh tube and evaporated to dryness under a stream of air at room temperature. The extraction efficiencies for 2-MeOE2 and 2-MeOE2bisMATE from plasma were 71±5 and 75±4% (n=6), respectively. The residues were stored at −20°C until analysis by HPLC.
2-MeOE2bisMATE was separated from its putative metabolites, 2-MeOE2, 2-MeOE2-3MATE and 2-MeOE2-17MATE, using a modified version of a reversed-phase HPLC method described previously ([Hildago Aragones et al, 1996]). An Agilent 1100 (Cheshire, UK) autosampler, photodiode array detector and solvent delivery system were used. The agents were separated from endogenous plasma components by an isocratic mobile phase consisting of 58% methanol in 0.02 M ammonium sulphate. Sodium azide (1 mM) was added to the mobile phase in order to decrease microbial growth. Extracted samples were reconstituted in mobile phase and aliquots of 100 μl were injected on to a C3-phenyl column (250 × 5 mm, 5 μm) purchased from Phenomenex (Cheshire, UK). 2-Methoxyoestradiol-bis-sulphamate, 2-MeOE2 and their metabolites were analysed with a photodiode array detector with detection at 285 nm. The method was validated by spiking plasma with 2-MeOE2bisMATE (960 ng ml^−1). The inter-day and intra-day coefficients of variation were 8.2% (n=6) and 3.8% (n=6), respectively. Quantification was achieved by spiking plasma with 2-MeOE2bisMATE and the internal standard 17α-epitestosterone, extraction with diethyl ether and subsequent analysis by HPLC. […] The limits of detection (LODs) and quantification of 2-MeOE2bisMATE in plasma were 11 and 40 ng ml^−1, respectively.
Pharmacokinetic parameters were calculated using WinNonlin software (Pharsight Corporation, Mountview, CA, USA). The area under the curve (AUC) was calculated using the linear trapezoidal method, with extrapolation of the terminal phase to infinity. Other parameters calculated were: distribution and elimination rate constants (α and β); total body clearance (Cl)=dose/AUC; volume of distribution (Vd)=Cl/β; distribution half-life (t1/2α)=0.693/α; elimination half-life (t1/2β)=0.693/β; bioavailability (% F=(AUCoral/AUCi.v) × 100).

Data set [2] concerns the target T1, steroid sulphatase (Rattus norvegicus, UniProt P15589).
T1 construct: Livers were obtained from animals administered with 2-MeOE2 or 2-MeOE2bisMATE either orally or intravenously, to assess their effects on steroid sulphatase activity; from tissue; host or cells: liver of female Wistar rats
T1 sequence (P15589 20-577): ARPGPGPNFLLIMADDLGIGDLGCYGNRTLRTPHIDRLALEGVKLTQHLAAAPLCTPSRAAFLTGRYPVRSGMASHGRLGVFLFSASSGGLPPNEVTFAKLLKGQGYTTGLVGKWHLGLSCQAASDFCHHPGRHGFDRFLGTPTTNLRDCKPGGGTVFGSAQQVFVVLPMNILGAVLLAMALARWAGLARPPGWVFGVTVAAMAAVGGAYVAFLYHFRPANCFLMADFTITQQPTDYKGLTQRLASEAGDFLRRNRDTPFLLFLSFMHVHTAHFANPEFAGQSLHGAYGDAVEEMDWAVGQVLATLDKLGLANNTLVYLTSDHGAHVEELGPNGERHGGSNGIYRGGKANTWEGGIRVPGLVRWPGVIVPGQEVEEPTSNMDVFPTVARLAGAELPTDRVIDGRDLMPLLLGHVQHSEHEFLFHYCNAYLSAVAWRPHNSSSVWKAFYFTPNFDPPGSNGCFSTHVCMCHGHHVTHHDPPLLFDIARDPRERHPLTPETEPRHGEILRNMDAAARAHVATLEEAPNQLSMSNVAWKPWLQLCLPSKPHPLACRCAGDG
Description: Liver oestrone sulphatase activity after in vivo dosing. As for the experimental part: Livers were obtained from animals administered with 2-MeOE2 or 2-MeOE2bisMATE either orally or intravenously, to assess their effects on steroid sulphatase activity. Steroid sulphatase activity was measured as described previously ([Purohit et al, 1995]).

The test system of data set [3] is MDA-MB-435 (ER−) human melanoma cells xenografts. Description: In vivo inhibition of tumour growth, MDA-MB-435 xenografts in nude mice. Also noted: species or system mouse. To be noted: 20 mg kg^−1 oral daily for 28 days; for effect on tumour growth / tumour volumes versus control: treatment and post-dosing periods. The method, then: (§1) To compare the anticancer effects of 2-MeOE2 and 2-MeOE2bisMATE, xenografts derived from MDA-MB-435 (ER−) human melanoma cells were transplanted into female nude mice with eight mice per group. These studies were carried out by Anti-Cancer Inc. (San Diego, CA, USA). Treatment was initiated when tumour volumes reached 100–200 mm^3. Drugs were dissolved in a minimum volume of THF, diluted with propylene glycol and administered at 20 mg kg^−1, oral, daily for 28 days. The length (l) and width (w) of tumours was measured at weekly intervals, from which the tumour volumes were calculated using the formula (l × w^2/2). Monitoring of tumour volumes continued for a further 28-day period after the end of drug administration. The body masses of control and treated animals were also measured at weekly intervals as an indicator of any toxicity that might be associated with the use of these drugs.
Student's t-test was used to assess the significance of differences in tumour volumes between control and treated animals.

Data set [4] in a line: Body masses of xenograft-bearing mice as an indicator of toxicity. The format is in vivo, mouse. The settings on record: nude mice, 20 mg kg^−1 oral daily for 28 days. The method, then: as §1
The test system of data set [5] is human umbilical vein endothelial cell (HUVEC). Also noted: method as in Newman et al, 2004. To be noted: in vitro; ref Newman et al, 2004; cited from earlier work.
Data set [6] addresses T1, steroid sulphatase. Also noted: method as in Purohit et al, 1995. To be noted: single dose 10 mg kg^−1 oral or intravenous; ref Purohit et al, 1995; cited from earlier work.
For data set [7] the following is noted: in vivo; cited from earlier work.
Setting [8] is: female, Wistar, in vivo, iv, 10 mg/kg.
Setting [9] is: female, Wistar, in vivo, po, 10 mg/kg.

“Also recorded” adds a separate entry of the source. Read-outs that look alike come from different tables or passages of the source.

In general, half-life refers to the time needed for the level to fall by half in the phase considered. Consider `COc1cc2c(cc1O)CC[C@@H]1[C@@H]2CC[C@]2(C)[C@@H](O)CC[C@@H]12` [2-MeOE2, 2-Methoxyoestradiol], for which, in data set [1] (10 mg kg^−1, (AUCoral/AUCi.v) × 100), the “% F (bioavailability)” value is “very low”. Besides, in data set [1] (1 h after 10 mg kg^−1 intravenous bolus, LOD 11 ng ml^−1), the plasma concentration result is given as “below the LOD”. Besides, in data set [1] (after oral or intravenous 2-MeOE2bisMATE 10 mg kg^−1), the “level in plasma as putative metabolite of 2-MeOE2bisMATE” value is “not above the LOD”. The compound further yielded a concentration at 1 h in data set [1] (female, Wistar, plasma, iv, 10 mg kg^−1, rat, 1 h after 10 mg kg^−1 intravenous bolus, LOD 11 ng ml^−1) of under 11 ng/mL. Also, the half-life in data set [1] (female, Wistar, plasma, iv, 10 mg kg^−1, rat, after intravenous administration, read-out: half-life in plasma) is about 0.233 h. The “inhibition of hepatic sulphatase activity compared with control animals” value in data set [2] (rat liver, single oral or intravenous dose 10 mg kg^−1) is on record as “did not affect”. The “effect on tumour growth / tumour volumes versus control” value in data set [3] is given as “did not inhibit tumour growth; also recorded: no significant effect”. For the same compound, the body weights result in data set [4] was “No decreases”.
A word on the bioavailability: it is dose-corrected exposure relative to a reference, in per cent. In general, AUC refers to concentration integrated over time. The low end stands for less exposure, the high end for more exposure. As a reminder, the Cmax is the maximum level reached in the sampled fluid or tissue. Broadly, the inhibition is the change of the read-out against control, counted positive when it falls. For the compound `COc1cc2c(cc1OS(N)(=O)=O)CCC1C2CC[C@]2(C)C(OS(N)(=O)=O)CCC12` (stereo partly drawn) [2-MeOE2bisMATE, 2-methoxyoestradiol-bis-sulphamate], in data set [1] (female, Wistar, in vivo), the plasma concentrations detected result is given as “up to 5 μM”. The same compound came in with a bioavailability in data set [1] (female, Wistar, in vivo, 10 mg/kg, % F (bioavailability)) of 85%. Further, the area under the curve (AUC) is 514 ± 154 µg·h/mL in data set [1] (setting [8]) and 389 ± 28.8 µg·h/mL in data set [1] (setting [9]). Further, the values for the peak concentration (Cmax) in data set [1] (setting [8]) and in data set [1] (setting [9]) were 6550 ± 920 ng/mL and 3900 ± 250 ng/mL, respectively. Besides, the Vd was found to be 0.28 ± 0.09 L in data set [1] (setting [8]) and 0.35 ± 0.02 L in data set [1] (setting [9]). In addition, the clearance in data set [1] (setting [8]) was 0.833 mL/min. Besides, the half-life in data set [1] (female, Wistar, in vivo, iv, 10 mg/kg, t1/2α (distribution half-life)) was 0.22 ± 0.1 h; in data set [1] (female, Wistar, in vivo, iv, 10 mg/kg, t1/2β (terminal half-life)) it was 8.5 ± 1.16 h; in data set [1] (female, Wistar, in vivo, po, 10 mg/kg, t1/2β (terminal plasma half-life)) it was 6.51 ± 1.09 h. In data set [1] (female, Wistar, in vivo, po), the “time for which compound was detectable in plasma” value is reported as “at least 24 h”. For the same compound, the Cl in data set [1] (setting [9]) amounted to 0.036 ± 0.001 L/h. The plasma concentration in data set [1] (female, Wistar, in vivo, po, 24 h) is 450 ng/mL. Further, the “time for which inhibition of sulphatase activity was maintained” value in data set [2] (rat liver, after single dose) is listed as 48 h. Also, the “inhibition of steroid sulphatase activity” value in data set [2] (rat liver, within 5 min of intravenous dosing) is over 99%; in data set [2] (rat liver, within 15 min of oral dosing) it was over 99%. Further, the inhibition at 10 mg/kg in data set [2] (rat, read-out: inhibition of hepatic sulphatase activity compared with control animals) came out at 99.5 ± 0.5%. For the same compound, in data set [3], the “effect on tumour growth / tumour volumes versus control” value was “almost completely inhibited tumour growth; also recorded: significantly smaller”. Moreover, in data set [3] (at 4 weeks, end of dosing), the “mean tumour volume as % of tumour volume in control animals” value is given as 14%. For the same compound, the “difference in tumour volumes versus control group” value in data set [3] (maintained for a further 4 weeks after cessation) was 86%. Further, the “potency relative to 2-MeOE2 in HUVEC growth inhibition” value in data set [5] is listed as 60 fold.
Take `C[C@]12CC[C@@H]3c4ccc(OS(N)(=O)=O)cc4CC[C@H]3[C@@H]1CCC2=O` [EMATE, oestrone-3-O-sulphamate]: in data set [6], the “inhibition of rat liver sulphatase” value is listed as “at least 99%”. Besides, in data set [7], the half-life in plasma is 4.5 h.
